The record followed here is patent US12613246B2, “Fluorescent probe and protein labeling method” (SHANGHAI GLORY CAPITAL MANAGEMENT LTD., priority 2018, dated 2026).

A short description of series [1]: Fluorescence of free probe before reaction with the protein tag. Format: physicochemical. Here is the method:
(§1) Mix the probe with corresponding protein tag to obtain the mixed sample, wherein the final concentration of probe in the mixed sample is 5 μM, and the final concentration of protein tags is 10 μM; hatch the mixed sample at 37° C. for 1 h, and detect its fluorescence intensity change by using the fluorescence spectrophotometer.
(§2) According to the free probe quantum yield shown in Table 1, the fluorescence of the probes of and reference probes are extremely low before the reaction with the protein tag, and is close to the background fluorescence level of PBS buffer solution. […] However, according to the quantum yield of the binding protein tag, the fluorescence signal enhancement can be detected in the corresponding excitation emission channel after the probe reacts with the protein tag with hundreds to one thousand fold fluorescence activation times and very high brightness; the reference probes also can activate fluorescence, but the fluorescence quantum yield and brightness after activation are quite low.

Series [2] concerns SNAP protein tag. Kind of series: Fluorescence activation after mixing probe with corresponding protein tag (SNAP). Format: biochemical. To be noted: probe 5 μM, protein tag 10 μM, 37° C., 1 h. Here is the method:
as §1, §2

A short description of series [3]: Fluorescence emission spectra of probes in glycerol and methanol (viscosity response). Format: physicochemical. The following applies: maximum excitation wavelength of each probe; for Fluorescence ratio in glycerol methanol: 1×10^−5 M; for Emission wavelength: medium not given. The text has this: Respectively dissolve Probe 1-32 and Reference Probes BG-CCVJ and BG-Gly-CCVJ in dimethyl sulfoxide so as to prepare a mother liquid with a concentration of 1×10^−2M; add the mother liquid to glycerol and methanol respectively and mix them well to prepare a solution with a concentration of 1×10^−5 M. Based on different probes, the fluorescence emission spectrum of each probe are detected under the same conditions with maximum excitation wavelength of each probe.
The probes are sensitive to the change of viscosity and have viscosity response.

In series [4] the test system is CLIP protein tag. Kind of series: Fluorescence activation after mixing probe with corresponding protein tag (CLIP). To be noted: probe 5 μM, protein tag 10 μM, 37° C., 1 h. It is filed as biochemical. How it is done:
as §1, §2

Bounds are passed on as bounds.

As to `CN(CCOC(=O)NCc1ccc(COc2nc(N)nc3[nH]cnc23)cc1)c1ccc2nc(/C=C(\C#N)C(=O)OC(C)(C)C)ccc2c1` [Probe 1], in series [1], the “Quantum yield of free probe” value was below 0.001. For the same molecule, in series [2], the Fluorescence activation multiple stood at 490 and the “Quantum yield of binding protein tags” value is 0.41. In series [3], the “Fluorescence ratio in glycerol methanol” value turned out to be 562 and the Emission wavelength stood at 550 nm.

Consider `CN(CCOC(=O)NCc1ccc(COc2nc(N)nc3[nH]cnc23)cc1)c1ccc2nc(/C=C(\C#N)c3nc4ccccc4o3)ccc2c1` [Probe 2], for which the “Quantum yield of free probe” value in series [1] was below 0.001. In addition, in series [2], the Fluorescence activation multiple was 556 and the “Quantum yield of binding protein tags” value was 0.44. In series [3], the “Fluorescence ratio in glycerol methanol” value was determined as 790 and the Emission wavelength worked out at 630 nm.

For `CN(CCOC(=O)NCc1ccc(COc2nccc(N)n2)cc1)c1ccc2nc(/C=C(\C#N)C(=O)OC(C)(C)C)ccc2c1` [Probe 3], the “Quantum yield of free probe” value in series [1] is on record as below 0.001. Moreover, in series [3], the “Fluorescence ratio in glycerol methanol” value came out at 621 and the Emission wavelength is 550 nm. Also, in series [4], the Fluorescence activation multiple was 473 and the “Quantum yield of binding protein tags” value stood at 0.41.

For the molecule `CN(CCOC(=O)NCc1ccc(COc2cc(Cl)nc(N)n2)cc1)c1ccc2nc(/C=C(\C#N)C(=O)OC(C)(C)C)ccc2c1` [Probe 4], the “Quantum yield of free probe” value in series [1] is below 0.001. Besides, in series [2], the Fluorescence activation multiple is recorded as 567 and the “Quantum yield of binding protein tags” value came to 0.39. Also, in series [3], the “Fluorescence ratio in glycerol methanol” value was 601 and the Emission wavelength was 550 nm.

As to `CN(CCOC(=O)NCc1ccc(COc2nc(N)nc3[nH]cnc23)cc1)c1ccc(-c2ccc(/C=C(\C#N)C(=O)OC(C)(C)C)o2)cc1` [Probe 5], the “Quantum yield of free probe” value in series [1] was below 0.001. Further, in series [2], the Fluorescence activation multiple is reported as 669 and the “Quantum yield of binding protein tags” value was 0.44. In series [3], the “Fluorescence ratio in glycerol methanol” value worked out at 821 and the Emission wavelength is 615 nm.

As for `COCCNC(=O)/C(C#N)=C/c1ccc(-c2ccc(N(C)CCOC(=O)NCc3ccc(COc4nc(N)nc5[nH]cnc45)cc3)cc2)o1` [Probe 6], the “Quantum yield of free probe” value in series [1] is reported as below 0.001. Besides, in series [2], the Fluorescence activation multiple was 745 and the “Quantum yield of binding protein tags” value is 0.41. In addition, in series [3], the “Fluorescence ratio in glycerol methanol” value worked out at 851 and the Emission wavelength is recorded as 627 nm.

On to `CN(CCOC(=O)NCc1ccc(COc2nc(N)nc3[nH]cnc23)cc1)c1ccc(-c2ccc(/C=C(\C#N)c3nc4ccccc4o3)o2)cc1` [Probe 7], for which the “Quantum yield of free probe” value in series [1] is recorded as below 0.001. Besides, in series [2], the Fluorescence activation multiple stood at 701 and the “Quantum yield of binding protein tags” value is 0.45. In series [3], the “Fluorescence ratio in glycerol methanol” value was determined as 814 and the Emission wavelength was determined as 666 nm.

`CN(CCOC(=O)NCc1ccc(COc2nccc(N)n2)cc1)c1ccc(-c2ccc(/C=C(\C#N)C(=O)OC(C)(C)C)o2)cc1` [Probe 8]: the “Quantum yield of free probe” value in series [1] is recorded as below 0.001. Further, in series [3], the “Fluorescence ratio in glycerol methanol” value worked out at 574 and the Emission wavelength is reported as 630 nm. In series [4], the Fluorescence activation multiple turned out to be 555 and the “Quantum yield of binding protein tags” value was 0.40.

As for `CN(CCOC(=O)NCc1ccc(COc2nc(N)nc3[nH]cnc23)cc1)c1ccc(-c2ccc(/C=C(\C#N)C(=O)OC(C)(C)C)o2)o1` [Probe 13], the “Quantum yield of free probe” value in series [1] was determined as 0.0012. Moreover, in series [2], the Fluorescence activation multiple is on record as 359 and the “Quantum yield of binding protein tags” value was determined as 0.37. Besides, in series [3], the “Fluorescence ratio in glycerol methanol” value is listed as 311 and the Emission wavelength came to 650 nm.

In the case of `CN(CCOC(=O)NCc1ccc(COc2nc(N)nc3[nH]cnc23)cc1)c1ccc(-c2ccc(/C=C(\C#N)c3nc4ccccc4s3)o2)o1` [Probe 14], the “Quantum yield of free probe” value in series [1] turned out to be 0.001. Also, in series [2], the Fluorescence activation multiple was 498 and the “Quantum yield of binding protein tags” value is 0.35. In addition, in series [3], the “Fluorescence ratio in glycerol methanol” value was 402 and the Emission wavelength amounted to 725 nm.

Regarding `CN(CCOC(=O)NCc1ccc(COc2nccc(N)n2)cc1)c1ccc(-c2ccc(/C=C(\C#N)C(=O)OC(C)(C)C)o2)o1` [Probe 15], in series [1], the “Quantum yield of free probe” value stood at 0.0012. For the same molecule, in series [3], the “Fluorescence ratio in glycerol methanol” value is listed as 301 and the Emission wavelength is on record as 651 nm. Also, in series [4], the Fluorescence activation multiple came to 265 and the “Quantum yield of binding protein tags” value was found to be 0.35.

Consider `COCCNC(=O)/C(C#N)=C/c1cc2c(s1)-c1ccc(N(C)CCOC(=O)NCc3ccc(COc4nc(N)nc5[nH]cnc45)cc3)cc1C2(C)C` [Probe 19], for which the “Quantum yield of free probe” value in series [1] is on record as below 0.001. Also, in series [2], the Fluorescence activation multiple worked out at 670 and the “Quantum yield of binding protein tags” value was found to be 0.51. For the same molecule, in series [3], the “Fluorescence ratio in glycerol methanol” value came out at 996 and the Emission wavelength came to 640 nm.

Consider `COCCNC(=S)/C(C#N)=C/c1cc2c(s1)-c1ccc(N(C)CCOC(=O)NCc3ccc(COc4nc(N)nc5[nH]cnc45)cc3)cc1C2(C)C` [Probe 20], for which the “Quantum yield of free probe” value in series [1] was below 0.001. In addition, in series [2], the Fluorescence activation multiple is given as 910 and the “Quantum yield of binding protein tags” value is given as 0.44. In series [3], the “Fluorescence ratio in glycerol methanol” value is on record as 1123 and the Emission wavelength is recorded as 665 nm.

In the case of `COC(=S)/C(C#N)=C/c1cc2c(s1)-c1ccc(N(C)CCOC(=O)NCc3ccc(COc4nc(N)nc5[nH]cnc45)cc3)cc1C2(C)C` [Probe 21], in series [1], the “Quantum yield of free probe” value is reported as below 0.001. In series [2], the Fluorescence activation multiple was 451 and the “Quantum yield of binding protein tags” value is listed as 0.39. In series [3], the “Fluorescence ratio in glycerol methanol” value is 542 and the Emission wavelength was 680 nm.

Take `CN(CCOC(=O)NCc1ccc(COc2nc(N)nc3[nH]cnc23)cc1)c1ccc2c(c1)C(C)(C)c1cc(/C=C(\C#N)C(=O)O)sc1-2` [Probe 23]: in series [1], the “Quantum yield of free probe” value is given as below 0.001. Moreover, in series [2], the Fluorescence activation multiple turned out to be 433 and the “Quantum yield of binding protein tags” value was 0.33. Besides, in series [3], the “Fluorescence ratio in glycerol methanol” value came out at 512 and the Emission wavelength is 643 nm.

For `CN(CCOC(=O)NCc1ccc(COc2cc(Cl)nc(N)n2)cc1)c1ccc2c(c1)C(C)(C)c1cc(/C=C(\C#N)C(=O)OC(C)(C)C)sc1-2` [Probe 27], the “Quantum yield of free probe” value in series [1] is reported as below 0.001. Further, in series [2], the Fluorescence activation multiple is 557 and the “Quantum yield of binding protein tags” value came out at 0.41. Further, in series [3], the “Fluorescence ratio in glycerol methanol” value is 493 and the Emission wavelength worked out at 645 nm.

As for `CN(CCOC(=O)NCc1ccc(COc2nc(N)nc3[nH]cnc23)cc1)c1ccc2c(c1)C(C)(C)c1cc(/C=C(\C#N)C(=O)OC(C)(C)C)oc1-2` [Probe 28], the “Quantum yield of free probe” value in series [1] is below 0.001. In addition, in series [2], the Fluorescence activation multiple worked out at 857 and the “Quantum yield of binding protein tags” value is on record as 0.67. Besides, in series [3], the “Fluorescence ratio in glycerol methanol” value came to 1274 and the Emission wavelength is given as 651 nm.

Take `CN(CCOC(=O)NCc1ccc(COc2nc(N)nc3[nH]cnc23)cc1)c1ccc2c(c1)C(C)(C)C(/C=C(\C#N)C(=O)OC(C)(C)C)=N2` [Probe 30]: the “Quantum yield of free probe” value in series [1] is reported as below 0.001. Also, in series [2], the Fluorescence activation multiple amounted to 503 and the “Quantum yield of binding protein tags” value was determined as 0.41. In addition, in series [3], the “Fluorescence ratio in glycerol methanol” value is recorded as 412 and the Emission wavelength was found to be 675 nm.

Regarding `CN(CCOC(=O)NCc1ccc(COc2nc(N)nc3[nH]cnc23)cc1)c1ccc2c(c1)C(C)(C)C(/C=C(\C#N)c1nc3ccccc3s1)=N2` [Probe 31], the “Quantum yield of free probe” value in series [1] is on record as below 0.001. In series [2], the Fluorescence activation multiple is given as 445 and the “Quantum yield of binding protein tags” value was found to be 0.47. For the same molecule, in series [3], the “Fluorescence ratio in glycerol methanol” value was 573 and the Emission wavelength stood at 703 nm.

In the case of `CN(CCOC(=O)NCc1ccc(COc2nccc(N)n2)cc1)c1ccc2c(c1)C(C)(C)C(/C=C(\C#N)C(=O)OC(C)(C)C)=N2` [Probe 32], in series [1], the “Quantum yield of free probe” value was below 0.001. Also, in series [2], the Fluorescence activation multiple was 421 and the “Quantum yield of binding protein tags” value is reported as 0.41. Further, in series [3], the “Fluorescence ratio in glycerol methanol” value is 553 and the Emission wavelength was found to be 675 nm.

For the molecule `N#C/C(=C\c1cc2c3c(c1)CCCN3CCC2)C(=O)NCc1ccc(COc2nc(N)nc3[nH]cnc23)cc1` [Reference probe BG-CCVJ, reference compound], the “Quantum yield of free probe” value in series [1] is reported as below 0.001. Besides, in series [2], the Fluorescence activation multiple is recorded as 170 and the “Quantum yield of binding protein tags” value is 0.02. For the same molecule, in series [3], the “Fluorescence ratio in glycerol methanol” value turned out to be 260 and the Emission wavelength was determined as 501 nm.

Turning to `N#C/C(=C\c1cc2c3c(c1)CCCN3CCC2)C(=O)NCC(=O)NCc1ccc(COc2nc(N)nc3[nH]cnc23)cc1` [Reference probe BG-Gly-CCVJ, reference compound], the “Quantum yield of free probe” value in series [1] is reported as below 0.001. Besides, the Fluorescence activation multiple in series [2] came out at 60. In series [3], the “Fluorescence ratio in glycerol methanol” value came to 260.
